Experimental data as given in US10053455B2, “Diazaspiroalkaneone-substituted oxazole derivatives as spleen tyrosine kinase inhibitors” (AB SCIENCE, priority 2014, dated 2018).
Like-named read-outs stand apart in the source and are kept apart here.

Key:
[1] = target: KIT D816V (Homo sapiens (Human), UniProt P10721, D816V); test: Cell-based proliferation assay on BaF3 model, KIT D816V
Protocol: (§1) Cell-based proliferation and viability assay CellTiter-Bleue cell-based survival/proliferation assay (Promega G8080) was performed on BaF3 models.
(§2) A total of 1.10^4 cells/well/50 μl were seeded in a 96-wells plate. Treatment was initiated by addition of a 2× drug solution of ½ serial dilutions ranging from 0 to 10 μM. Cells were grown for 48-72 h at 37° C. and then incubated with 10 μl/well of Promega CellTiter-Bleue reagent for 4 h at 37° C. The amount of formazan dye formed was quantified by its absorbance at 450 nm using a scanning multiwell spectrophotometer (POLARstar Omega, BMG labtech, France). A blank well without cells was used as a background control for the spectrophotometer and all assays were performed in duplicates and the experiments were repeated at least twice.

[2] = target: TEL-SYK (Homo sapiens, UniProt P43405); test: Cell-based proliferation assay on BaF3 model, TEL-SYK
Protocol: as §1, §2

[3] = WST-1 cell survival/proliferation assay on human cardiomyocytes; assay type: cell-based; settings: Human Cardiac Myocyte
Protocol: (§3) WST-1 cell survival/proliferation assay (Roche Diagnostic ref No 1644807) was performed on both primary human adult cardiomyocytes and rat neonatal cardiac myocytes.
(§4) Human cardiomyocytes were isolated from normal human ventricle tissue of the adult heart and were able to proliferate for a number of passage. Neonatal ventricular Clonetics® Rat Cardiac Myocytes (P1-3) retained their contractile property and were electrophysiologically active in culture. 1.10^4 primary rat cells or 2-2.5 10^4 adult human cells were plated per well of a 96 wells plates. The cells were allowed to adhere to the plates for 5 days before drug treatment. Treatment was initiated by addition of a 2× drug solution of ½ serial dilutions ranging from 0 to 10 μM. Cells were grown for 48 h at 37° C. and then incubated with 10 μl/well of WST-1 reagent for 4 h at 37° C. The amount of formazan dye formed was quantified by its absorbance at 450 nm using a scanning multiwell spectrophotometer (MultiSkan MS, Thermo-LabSystems, France). A blank well without cells was used as a background control for the spectrophotometer and all assays were performed in triplicate.

[4] = test system: Salmonella typhimurium strain TA98; test: AMES mutagenic assay, TA98 strain
Protocol: (§5) Mutagenic activity of test compounds and their metabolites (produced by rat liver S9 fraction) was evaluated in the Salmonella typhimurium strains TA100 and TA98 according to the Ames assay (Toxicology in vitro, (2001), 15: 105-114). […] The results are expressed as a mutagenicity ratio in comparison to solvent controls.
(§6) The results are expressed as a ratio of the number of colonies over the number of colonies in the negative control (DMSO).

[5] = test system: Salmonella typhimurium strain TA100
Protocol: as §5, §6

[6] = target: VEGFR2 (Homo sapiens (Human), UniProt P35968); test: HTRF kinase assay, VEGFR2; assay type: biochemical; settings: enzymatic determination
VEGFR2, sequence (P35968 20-1356, species assumed): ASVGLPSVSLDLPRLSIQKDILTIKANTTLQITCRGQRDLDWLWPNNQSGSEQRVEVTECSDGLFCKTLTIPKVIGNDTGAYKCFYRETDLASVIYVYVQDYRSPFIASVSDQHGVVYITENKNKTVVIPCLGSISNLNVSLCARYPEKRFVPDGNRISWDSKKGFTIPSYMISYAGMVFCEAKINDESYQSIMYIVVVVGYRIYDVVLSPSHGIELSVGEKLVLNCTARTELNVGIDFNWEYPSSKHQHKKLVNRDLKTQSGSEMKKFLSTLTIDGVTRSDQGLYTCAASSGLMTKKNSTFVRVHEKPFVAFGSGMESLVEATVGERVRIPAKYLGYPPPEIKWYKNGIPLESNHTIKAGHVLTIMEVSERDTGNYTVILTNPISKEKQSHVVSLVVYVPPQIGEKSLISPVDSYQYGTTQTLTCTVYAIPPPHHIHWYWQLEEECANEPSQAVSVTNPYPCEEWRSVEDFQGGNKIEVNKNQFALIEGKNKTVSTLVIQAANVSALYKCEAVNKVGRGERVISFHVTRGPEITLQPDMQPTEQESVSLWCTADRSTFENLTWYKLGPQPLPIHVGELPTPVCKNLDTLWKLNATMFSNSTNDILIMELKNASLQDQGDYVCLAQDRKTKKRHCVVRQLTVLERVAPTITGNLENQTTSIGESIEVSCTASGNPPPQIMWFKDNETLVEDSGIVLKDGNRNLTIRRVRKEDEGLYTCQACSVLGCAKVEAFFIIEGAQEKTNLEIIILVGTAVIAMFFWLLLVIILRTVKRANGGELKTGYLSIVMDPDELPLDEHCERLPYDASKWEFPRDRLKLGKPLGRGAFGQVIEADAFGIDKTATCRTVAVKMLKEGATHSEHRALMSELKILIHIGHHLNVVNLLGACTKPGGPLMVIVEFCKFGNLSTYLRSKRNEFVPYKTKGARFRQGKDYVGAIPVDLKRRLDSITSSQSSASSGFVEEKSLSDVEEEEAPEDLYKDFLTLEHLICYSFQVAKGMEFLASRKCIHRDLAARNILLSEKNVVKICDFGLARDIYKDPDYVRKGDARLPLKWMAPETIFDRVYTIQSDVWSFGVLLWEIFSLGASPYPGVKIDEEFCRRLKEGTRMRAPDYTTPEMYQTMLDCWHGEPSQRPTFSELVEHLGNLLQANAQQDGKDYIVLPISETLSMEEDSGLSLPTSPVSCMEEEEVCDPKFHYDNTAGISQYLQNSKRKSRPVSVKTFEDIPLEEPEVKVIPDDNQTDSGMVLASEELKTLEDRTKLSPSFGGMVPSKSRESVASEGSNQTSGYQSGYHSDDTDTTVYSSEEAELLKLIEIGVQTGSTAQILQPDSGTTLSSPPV
Protocol: (§7) Most of the kinases tested in this study were cloned, expressed and purified in the facilities of the inventors. They were expressed either as N-terminus hexahistidine-, hexahistidine-asparagine- or GST-tagged enzymes in a baculovirus or in a Colibacille expression system. Remaining enzymes (JAKs) were purchased from Millipore or Proqinase. For each enzyme, steady state kinetic parameters were determined and validated with known inhibitors.
(§8) The analysis of the effect of compounds on kinase activity was assessed with the HTRF® KinEASE assay (Cisbio International), an immuno-assay based on the quantification of the level of phosphorylation of a biotinylated peptide substrate using anti-phospho-specific antibody labeled with Europium (Eu^3+) cryptate. This assay comprises two steps: —an enzymatic step, during which the peptide substrate, the kinase, ATP, Mg^2+ and/or Mn^2+ are incubated with varying concentration of drug (from 0 to 10 μM); —a detection step, at the end of the reaction (stopped by addition of EDTA which chelates Mg^2+), the antibody anti-phospho peptide-Eu^3+ (emission 620 nm) and streptavidin XL-665 (emission 665 nm) are added to the reaction mix. […] Results are expressed in delta fluorescence (DF) unit defined as follow DF %=[(ratio−ratio blank)/(ratio blank)]*100, where ratio=(665 nm/620 nm)*10^4. […]

[7] = target: VEGFR1 (Homo sapiens (Human), UniProt P17948); test: HTRF kinase assay, VEGFR1; assay type: biochemical; settings: enzymatic determination
VEGFR1, sequence (P17948 27-1338, species assumed): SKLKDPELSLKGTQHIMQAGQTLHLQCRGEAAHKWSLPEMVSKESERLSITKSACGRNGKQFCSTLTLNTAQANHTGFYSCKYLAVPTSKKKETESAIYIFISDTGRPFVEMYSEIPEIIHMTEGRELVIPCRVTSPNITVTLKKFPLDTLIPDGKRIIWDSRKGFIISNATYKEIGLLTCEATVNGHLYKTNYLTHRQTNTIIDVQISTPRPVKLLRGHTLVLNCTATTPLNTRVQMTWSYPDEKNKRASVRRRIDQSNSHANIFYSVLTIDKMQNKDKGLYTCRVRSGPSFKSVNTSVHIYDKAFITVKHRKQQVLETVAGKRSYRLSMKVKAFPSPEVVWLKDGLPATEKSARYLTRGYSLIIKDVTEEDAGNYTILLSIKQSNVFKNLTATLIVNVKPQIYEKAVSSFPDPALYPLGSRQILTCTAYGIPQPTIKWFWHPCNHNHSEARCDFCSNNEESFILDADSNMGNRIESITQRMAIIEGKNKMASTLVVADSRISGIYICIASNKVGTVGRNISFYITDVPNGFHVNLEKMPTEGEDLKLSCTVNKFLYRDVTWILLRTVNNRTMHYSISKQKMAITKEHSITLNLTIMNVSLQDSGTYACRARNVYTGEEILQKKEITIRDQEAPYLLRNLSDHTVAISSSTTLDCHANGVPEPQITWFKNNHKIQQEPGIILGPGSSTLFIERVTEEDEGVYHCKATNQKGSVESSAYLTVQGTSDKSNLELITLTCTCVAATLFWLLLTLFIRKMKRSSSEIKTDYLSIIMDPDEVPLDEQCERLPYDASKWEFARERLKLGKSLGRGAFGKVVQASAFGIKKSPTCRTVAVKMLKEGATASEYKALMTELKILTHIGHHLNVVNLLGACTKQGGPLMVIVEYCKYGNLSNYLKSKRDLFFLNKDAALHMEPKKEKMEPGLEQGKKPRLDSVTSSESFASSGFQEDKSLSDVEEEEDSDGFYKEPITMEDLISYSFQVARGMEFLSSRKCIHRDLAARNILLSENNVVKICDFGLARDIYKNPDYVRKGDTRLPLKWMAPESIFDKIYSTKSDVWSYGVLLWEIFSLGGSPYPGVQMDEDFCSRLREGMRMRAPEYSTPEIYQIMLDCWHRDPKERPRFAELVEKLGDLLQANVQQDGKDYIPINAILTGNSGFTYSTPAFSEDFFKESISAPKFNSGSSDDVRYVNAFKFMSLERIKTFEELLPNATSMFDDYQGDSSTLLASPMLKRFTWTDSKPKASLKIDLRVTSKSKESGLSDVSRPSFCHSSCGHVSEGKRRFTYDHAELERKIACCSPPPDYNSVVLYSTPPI
Protocol: as §7, §8

[8] = target: Jak1 (Homo sapiens (Human), UniProt P23458); test: HTRF kinase assay, Jak1; assay type: biochemical; settings: enzymatic determination
Jak1, sequence (P23458 whole entry): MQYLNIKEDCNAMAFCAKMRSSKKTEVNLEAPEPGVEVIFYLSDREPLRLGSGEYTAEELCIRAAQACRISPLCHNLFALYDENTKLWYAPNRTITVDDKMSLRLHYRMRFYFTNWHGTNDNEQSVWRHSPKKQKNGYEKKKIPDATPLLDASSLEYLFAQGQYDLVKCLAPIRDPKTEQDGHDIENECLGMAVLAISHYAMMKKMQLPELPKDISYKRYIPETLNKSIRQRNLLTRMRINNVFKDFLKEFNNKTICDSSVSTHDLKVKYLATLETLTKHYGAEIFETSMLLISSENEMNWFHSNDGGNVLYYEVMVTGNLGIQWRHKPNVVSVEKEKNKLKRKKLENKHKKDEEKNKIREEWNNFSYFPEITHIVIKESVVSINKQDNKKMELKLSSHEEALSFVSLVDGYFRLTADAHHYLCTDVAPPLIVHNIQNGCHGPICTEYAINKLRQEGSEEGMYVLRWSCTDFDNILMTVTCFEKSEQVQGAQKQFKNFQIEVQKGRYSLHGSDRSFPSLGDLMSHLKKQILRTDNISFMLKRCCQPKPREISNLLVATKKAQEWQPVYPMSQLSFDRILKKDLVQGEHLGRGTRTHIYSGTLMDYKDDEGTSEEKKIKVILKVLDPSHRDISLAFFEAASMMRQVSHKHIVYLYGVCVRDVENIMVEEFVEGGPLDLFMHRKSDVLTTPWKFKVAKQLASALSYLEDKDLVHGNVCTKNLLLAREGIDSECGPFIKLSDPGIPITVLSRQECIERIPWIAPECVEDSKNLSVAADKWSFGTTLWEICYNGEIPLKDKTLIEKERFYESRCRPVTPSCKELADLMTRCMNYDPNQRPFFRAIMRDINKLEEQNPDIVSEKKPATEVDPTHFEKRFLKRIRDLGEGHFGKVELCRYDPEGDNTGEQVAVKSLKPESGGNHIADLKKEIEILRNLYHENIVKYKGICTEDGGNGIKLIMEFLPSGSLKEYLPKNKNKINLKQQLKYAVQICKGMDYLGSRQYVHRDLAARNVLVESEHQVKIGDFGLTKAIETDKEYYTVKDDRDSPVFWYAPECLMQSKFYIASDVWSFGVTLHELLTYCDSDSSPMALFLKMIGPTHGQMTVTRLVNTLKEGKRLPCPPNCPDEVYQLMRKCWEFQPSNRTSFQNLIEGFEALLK
Protocol: as §7, §8

[9] = WST-1 cell survival/proliferation assay on rat cardiomyocytes; assay type: cell-based; settings: Rat Cardiac Myocyte
Protocol: as §3, §4

[10] = TA98, absence of S-9, 0.5 μg per well
[11] = TA98, absence of S-9, 1.4 μg per well
[12] = TA98, absence of S-9, 4.1 μg per well
[13] = TA98, absence of S-9, 12.3 μg per well
[14] = TA98, absence of S-9, 37 μg per well
[15] = TA98, absence of S-9, 111.1 μg per well
[16] = TA98, absence of S-9, 333.3 μg per well
[17] = TA98, absence of S-9, 1000 μg per well
[18] = TA98, presence of S-9, 0.5 μg per well
[19] = TA98, presence of S-9, 1.4 μg per well
[20] = TA98, presence of S-9, 4.1 μg per well
[21] = TA98, presence of S-9, 12.3 μg per well
[22] = TA98, presence of S-9, 37 μg per well
[23] = TA98, presence of S-9, 111.1 μg per well
[24] = TA98, presence of S-9, 333.3 μg per well
[25] = TA98, presence of S-9, 1000 μg per well

KIT D816V, sequence (P10721 26-976 D816V): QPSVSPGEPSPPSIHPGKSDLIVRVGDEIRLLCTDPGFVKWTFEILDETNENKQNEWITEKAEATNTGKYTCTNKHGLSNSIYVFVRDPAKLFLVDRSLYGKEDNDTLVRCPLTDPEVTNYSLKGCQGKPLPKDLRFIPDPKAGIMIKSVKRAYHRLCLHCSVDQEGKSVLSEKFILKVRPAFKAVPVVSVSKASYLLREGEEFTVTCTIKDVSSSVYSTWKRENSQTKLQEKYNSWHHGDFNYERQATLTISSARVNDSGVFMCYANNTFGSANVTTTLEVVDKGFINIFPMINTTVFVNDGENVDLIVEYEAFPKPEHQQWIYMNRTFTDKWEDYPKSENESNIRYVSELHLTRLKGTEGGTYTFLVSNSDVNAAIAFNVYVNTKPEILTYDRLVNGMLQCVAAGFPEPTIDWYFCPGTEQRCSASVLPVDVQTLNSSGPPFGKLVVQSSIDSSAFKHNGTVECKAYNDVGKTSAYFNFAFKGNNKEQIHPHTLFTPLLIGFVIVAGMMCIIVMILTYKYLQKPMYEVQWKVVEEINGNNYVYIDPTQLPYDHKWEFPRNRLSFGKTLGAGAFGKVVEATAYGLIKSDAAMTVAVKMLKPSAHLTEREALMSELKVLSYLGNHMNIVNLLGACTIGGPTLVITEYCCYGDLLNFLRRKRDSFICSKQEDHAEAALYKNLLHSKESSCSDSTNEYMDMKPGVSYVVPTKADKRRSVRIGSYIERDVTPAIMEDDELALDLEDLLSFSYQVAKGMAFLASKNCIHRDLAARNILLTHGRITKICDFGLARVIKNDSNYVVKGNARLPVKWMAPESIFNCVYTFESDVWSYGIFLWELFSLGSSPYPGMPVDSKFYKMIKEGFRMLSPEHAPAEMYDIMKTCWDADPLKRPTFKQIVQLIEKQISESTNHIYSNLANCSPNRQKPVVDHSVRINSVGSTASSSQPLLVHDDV

Cc1ccnc(Nc2cccc(-c3cnc(N4CCNC(=O)C45CC5)o3)c2)n1 [Compound 001, 4-{5-[3-(4-Methyl-pyrimidin-2-ylamino)-phenyl]-oxazol-2-yl}-4,7-diaza-spiro[2.5]octan-8-one]
IC50 [1]: 10 µM
IC50 ([2]; read-out: Kinase activity profile IC50 Tel-Syk): 0.272 µM
IC50 ([2]; read-out: TEL-SYK IC50): 0.27 µM
IC50 at 48 h ([3]; 48 h, read-out: Drug-induced cytotoxicity IC50, Hu-CM): 10 µM
viability at 48 h, 1 µM ([3]; primary human adult cardiomyocytes, 1 μM, read-out: % cell viable at 1 μM, Hu-CM): 14%
Mean revertant colony counts [4, 10]: 7.3
Ratio treated/solvent [4, 10]: 1.7
Mean revertant colony counts [4, 11]: 4.3
Ratio treated/solvent [4, 11]: 1.0
Mean revertant colony counts [4, 12]: 6.3
Ratio treated/solvent [4, 12]: 1.5
Mean revertant colony counts [4, 13]: 5.3
Ratio treated/solvent [4, 13]: 1.2
Mean revertant colony counts [4, 14]: 8.3
Ratio treated/solvent [4, 14]: 1.9
Mean revertant colony counts [4, 15]: 6.3
Ratio treated/solvent [4, 15]: 1.5
Mean revertant colony counts [4, 16]: 4.3
Ratio treated/solvent [4, 16]: 1.0
Mean revertant colony counts [4, 17]: 3.7
Ratio treated/solvent [4, 17]: 0.8
Mean revertant colony counts [4, 18]: 10.3
Ratio treated/solvent [4, 18]: 3.9
Mean revertant colony counts [4, 19]: 7.3
Ratio treated/solvent [4, 19]: 2.8
Mean revertant colony counts [4, 20]: 9.3
Ratio treated/solvent [4, 20]: 3.5
Mean revertant colony counts [4, 21]: 6.7
Ratio treated/solvent [4, 21]: 2.5
Mean revertant colony counts [4, 22]: 5.7
Ratio treated/solvent [4, 22]: 2.1
Mean revertant colony counts [4, 23]: 7.3
Ratio treated/solvent [4, 23]: 2.8
Mean revertant colony counts [4, 24]: 6.3
Ratio treated/solvent [4, 24]: 2.4
Mean revertant colony counts [4, 25]: 5.0
Ratio treated/solvent [4, 25]: 1.9
mutagenic activity ([4]; TA98, with or without liver metabolic activation system (S9 mix)): did not show any mutagenic activity
mutagenic activity [5]: did not show any mutagenic activity
IC50 [6]: 20 µM
IC50 [7]: 7.5 µM
IC50 [8]: 3.4 µM
IC50 at 48 h ([9]; neonatal ventricular rat cardiac myocytes (Clonetics, P1-3), 48 h, read-out: Drug-induced cytotoxicity IC50, Rat-CM): 10 µM
viability change vs untreated control at 48 h, 1 µM ([9]; rat neonatal cardiac myocytes, 1 μM): -2%
